We go through 26 compounds from ChEMBL document CHEMBL5214954, “Identification of PI3K/HDAC Dual-targeted inhibitors with subtype selectivity as potential therapeutic agents against solid Tumors: Building HDAC6 potency in a Quinazolinone-based PI3Kδ-selective template” (Bioorg Med Chem, 2022).

In data set [1] the target is T1, Phosphatidylinositol 4,5-bisphosphate 3-kinase catalytic subunit delta isoform (Homo sapiens, UniProt O00329).
T1 sequence (O00329 whole entry): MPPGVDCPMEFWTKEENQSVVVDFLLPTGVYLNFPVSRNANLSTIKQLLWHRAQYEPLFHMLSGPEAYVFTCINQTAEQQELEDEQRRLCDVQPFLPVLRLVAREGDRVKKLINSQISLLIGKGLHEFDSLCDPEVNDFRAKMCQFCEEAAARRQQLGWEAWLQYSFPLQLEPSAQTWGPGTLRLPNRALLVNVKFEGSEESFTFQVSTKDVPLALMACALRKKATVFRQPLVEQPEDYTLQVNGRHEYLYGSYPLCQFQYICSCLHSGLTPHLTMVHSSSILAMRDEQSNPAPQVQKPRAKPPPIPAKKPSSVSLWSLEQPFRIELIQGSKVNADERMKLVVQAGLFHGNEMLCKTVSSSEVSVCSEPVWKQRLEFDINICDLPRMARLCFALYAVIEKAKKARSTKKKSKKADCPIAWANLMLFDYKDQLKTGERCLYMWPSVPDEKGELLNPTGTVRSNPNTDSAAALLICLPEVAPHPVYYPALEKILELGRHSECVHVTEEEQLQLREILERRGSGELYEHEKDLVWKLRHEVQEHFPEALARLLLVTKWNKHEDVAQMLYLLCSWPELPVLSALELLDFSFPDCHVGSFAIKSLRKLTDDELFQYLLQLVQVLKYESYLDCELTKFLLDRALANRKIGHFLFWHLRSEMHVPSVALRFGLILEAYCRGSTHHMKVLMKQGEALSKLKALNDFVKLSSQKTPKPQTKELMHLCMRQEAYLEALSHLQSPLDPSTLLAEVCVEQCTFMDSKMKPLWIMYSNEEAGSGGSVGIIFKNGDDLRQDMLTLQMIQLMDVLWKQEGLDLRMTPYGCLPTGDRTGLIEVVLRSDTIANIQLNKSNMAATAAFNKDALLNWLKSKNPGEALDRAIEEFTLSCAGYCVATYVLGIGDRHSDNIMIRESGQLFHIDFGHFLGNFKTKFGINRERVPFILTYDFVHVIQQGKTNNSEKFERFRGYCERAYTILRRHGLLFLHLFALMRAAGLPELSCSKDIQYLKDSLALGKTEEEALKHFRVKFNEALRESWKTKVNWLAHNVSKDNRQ
Description: Inhibition of PI3Kdelta (unknown origin) measured by ADP-Glo assay. (ADP-Glo turns the ADP formed in a reaction into a luminescent signal.)

For a further data set, the target named is Histone deacetylase 1 (Homo sapiens, UniProt Q13547).
Sequence of Histone deacetylase 1 (Q13547 whole entry): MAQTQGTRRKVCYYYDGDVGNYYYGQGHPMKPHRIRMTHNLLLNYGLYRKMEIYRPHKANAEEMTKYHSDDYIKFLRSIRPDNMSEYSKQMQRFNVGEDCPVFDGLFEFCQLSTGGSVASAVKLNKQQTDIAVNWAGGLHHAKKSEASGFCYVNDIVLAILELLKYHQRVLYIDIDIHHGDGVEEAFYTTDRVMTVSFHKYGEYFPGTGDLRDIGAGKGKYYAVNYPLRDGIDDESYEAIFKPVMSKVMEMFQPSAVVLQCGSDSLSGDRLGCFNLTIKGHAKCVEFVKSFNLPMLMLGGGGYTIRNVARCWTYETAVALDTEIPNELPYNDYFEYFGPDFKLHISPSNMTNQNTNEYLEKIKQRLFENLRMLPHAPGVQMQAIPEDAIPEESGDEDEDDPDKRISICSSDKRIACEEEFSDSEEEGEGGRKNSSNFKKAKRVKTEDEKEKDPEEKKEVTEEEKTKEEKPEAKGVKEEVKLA
Data set [2] deals with T2, Protein deacetylase HDAC6 (Homo sapiens, UniProt Q9UBN7).
T2 sequence (Q9UBN7 whole entry): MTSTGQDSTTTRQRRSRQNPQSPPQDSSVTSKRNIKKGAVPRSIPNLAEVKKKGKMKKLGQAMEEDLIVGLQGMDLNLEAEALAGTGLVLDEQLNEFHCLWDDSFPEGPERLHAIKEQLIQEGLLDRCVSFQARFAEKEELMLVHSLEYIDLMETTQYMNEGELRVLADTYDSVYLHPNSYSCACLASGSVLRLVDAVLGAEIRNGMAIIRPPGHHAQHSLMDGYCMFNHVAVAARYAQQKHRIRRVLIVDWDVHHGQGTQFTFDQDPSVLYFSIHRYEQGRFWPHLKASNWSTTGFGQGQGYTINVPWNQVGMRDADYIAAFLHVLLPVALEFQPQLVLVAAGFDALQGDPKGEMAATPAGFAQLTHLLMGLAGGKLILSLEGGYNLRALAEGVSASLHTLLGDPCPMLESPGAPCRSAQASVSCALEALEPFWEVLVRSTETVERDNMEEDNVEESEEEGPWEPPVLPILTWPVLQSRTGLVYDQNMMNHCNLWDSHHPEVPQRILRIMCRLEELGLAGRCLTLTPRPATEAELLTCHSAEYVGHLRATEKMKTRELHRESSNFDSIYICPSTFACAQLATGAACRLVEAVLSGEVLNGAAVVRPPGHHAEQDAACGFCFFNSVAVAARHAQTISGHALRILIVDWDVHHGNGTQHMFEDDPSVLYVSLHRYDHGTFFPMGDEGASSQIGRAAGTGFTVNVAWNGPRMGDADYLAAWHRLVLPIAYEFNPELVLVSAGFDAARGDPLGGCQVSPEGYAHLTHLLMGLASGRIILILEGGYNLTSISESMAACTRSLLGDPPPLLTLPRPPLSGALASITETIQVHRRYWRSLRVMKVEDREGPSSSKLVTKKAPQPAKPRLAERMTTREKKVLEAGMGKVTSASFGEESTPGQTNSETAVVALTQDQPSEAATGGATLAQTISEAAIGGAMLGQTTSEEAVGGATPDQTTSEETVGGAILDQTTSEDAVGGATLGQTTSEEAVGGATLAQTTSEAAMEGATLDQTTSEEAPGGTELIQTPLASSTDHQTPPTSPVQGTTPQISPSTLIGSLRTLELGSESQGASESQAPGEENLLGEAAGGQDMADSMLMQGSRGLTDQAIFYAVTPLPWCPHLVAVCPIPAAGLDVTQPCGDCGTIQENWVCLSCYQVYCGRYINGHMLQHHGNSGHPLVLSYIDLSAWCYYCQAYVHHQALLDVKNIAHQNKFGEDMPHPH
Description: Inhibition of HDAC6 (unknown origin) measured by fluorescence based assay

The test system of another data set is T47D. Description: Antiproliferative activity against human T47D cells incubated for 72 hrs by CCK-8 assay. Format: functional, cell-based. (In general: Formazan colour is commonly taken as a measure of viable cells.)
Data set [3] is described as follows: Cytotoxicity against HUVEC cells incubated for 72 hrs by CCK-8 assay. The note with it: human.
A further data set concerns SU-DHL-6. Put plainly: Antiproliferative activity against human SU-DHL-6 cells incubated for 72 hrs by CCK-8 assay. In kind it is functional, cell-based. Particulars: SU-DHL-6, 72 h.
The next data set deals with HCT-116. Put plainly: Antiproliferative activity against human HCT-116 cells incubated for 72 hrs by CCK-8 assay. The note with it: HCT-116, 72 h. In kind it is functional, cell-based.
The next data set deals with KM12. Put plainly: Antiproliferative activity against human KM12 cells incubated for 72 hrs by CCK-8 assay. In kind it is functional, cell-based. Particulars: KM12, 72 h.

Description for Histone deacetylase 1: Inhibition of HDAC1 (unknown origin) measured by fluorescence based assay

Regarding `O=C(NO)c1ccc(Cn2c([C@@H]3CC4(CC4)CN3c3ncnc4[nH]cnc34)nc3cccc(F)c3c2=O)cc1`, the IC50 in data set [1] came out at 136 nM; on Histone deacetylase 1, 360 nM; in data set [2], 28 nM.
In turn, `N#Cc1c(N)nc(N)nc1N1CC2(CC2)C[C@H]1c1nc(NCc2ccc(C(=O)NO)cc2)c2c(Cl)cccc2n1` registered an IC50 in data set [2] of 398 nM.
As for `C[C@H](Nc1nc(N)nc(N)c1C#N)c1nc2cccc(Cl)c2c(=O)n1Cc1ccc(C(=O)NO)s1`, the half-inhibitory concentration (IC50) on Histone deacetylase 1 amounted to 214 nM; in data set [2], 66 nM.
`O=C(CCCCCCNC(=O)c1cnc(N(c2ccccc2)c2ccccc2)nc1)NO` [RICOLINOSTAT]: the half-inhibitory concentration (IC50) was 710 nM in the data set with T47D, 830 nM in the data set on SU-DHL-6, 1850 nM in the data set with HCT-116 and 2150 nM in the data set on KM12. The same compound displayed an IC50 at 72 h in data set [3] of 13600 nM.
As for `Cn1c([C@@H]2C[C@@H](OC(=O)NCc3ccc(C(=O)NO)s3)CN2c2nc(N)nc(N)c2C#N)nc2cccc(Cl)c2c1=O`, the IC50 in data set [1] stood at 16 nM; against Histone deacetylase 1, 182 nM; in data set [2], 43 nM.
As for `N#Cc1c(N)nc(N)nc1N1C[C@H](OC(=O)NCc2ccc(C(=O)NO)cc2)C[C@H]1c1nc2cccc(Cl)c2c(=O)n1-c1ccccc1`, the results for the IC50 (in data set [1]; against Histone deacetylase 1; in data set [2]) were 1.6 nM, 271 nM and 87 nM, respectively.
For `CC[C@H](Nc1nc(N)nc(N)c1C#N)c1nc2cccc(Cl)c2c(=O)n1Cc1ccc(C(=O)NO)s1`, the IC50 against Histone deacetylase 1 stood at 198 nM; in data set [2] it was 45 nM.
With `CN1CCc2c(c3ccccc3n2Cc2ccc(C(=O)NO)cc2)C1` [TUBASTATIN A], in data set [3], the half-maximal inhibitory concentration (IC50) at 72 h is […].
The compound `N#Cc1c(N)nc(N)nc1N1CCC[C@H]1c1nc2cccc(Cl)c2c(=O)n1Cc1ccc(C(=O)NO)cc1` registered an IC50 in data set [2] of 280 nM.
Compound `N#Cc1c(N)nc(N)nc1N1C[C@H](OC(=O)NCc2ccc(C(=O)NO)cc2)C[C@H]1c1nc2cccc(F)c2c(=O)n1-c1ccccc1` came in with an IC50 in data set [1] of 24 nM.
`N#Cc1c(N)nc(N)nc1N1CC2(CC2)C[C@H]1c1nc2cccc(Cl)c2c(=O)n1Cc1cc(C(=O)NO)no1`: the 50% inhibitory concentration (IC50) in data set [1] was found to be 6.9 nM; in data set [2], 604 nM.
Consider `CC[C@H](Nc1ncnc2[nH]cnc12)c1nc2cccc(F)c2c(=O)n1Cc1ccc(C(=O)NO)cc1`, for which the IC50 in data set [1] stood at 99 nM; against Histone deacetylase 1, 244 nM; in data set [2], 45 nM.
In data set [2], `N#Cc1c(N)nc(N)nc1N1CCC[C@H]1c1nc(NCc2ccc(C(=O)NO)cc2)c2c(Cl)cccc2n1` yielded an IC50 of 267 nM.
Regarding `Cn1c([C@@H]2C[C@@H](OC(=O)NCc3ccc(C(=O)NO)cc3)CN2c2nc(N)nc(N)c2C#N)nc2cccc(Cl)c2c1=O`, the results for the IC50 (in data set [1]; at Histone deacetylase 1; in data set [2]) were 18 nM, 102 nM and 27 nM, respectively.
Take `CC[C@H](Nc1ncnc2[nH]cnc12)c1nc2cccc(F)c2c(=O)n1-c1ccccc1` [IDELALISIB]: the IC50 in the data set with T47D was found to be 510 nM; in the data set on SU-DHL-6, 53 nM; in the data set on HCT-116, 2960 nM; with KM12, 960 nM. In data set [3], this compound gave an IC50 at 72 h of 38200 nM.
As to `Cn1c([C@@H]2C[C@@H](OCc3ccc(C(=O)NO)cc3)CN2c2nc(N)nc(N)c2C#N)nc2cccc(Cl)c2c1=O`, the IC50 in data set [1] was found to be 75 nM; against Histone deacetylase 1 it was 72 nM; in data set [2] it was 13 nM.
Consider `N#Cc1c(N)nc(N)nc1N1CCC[C@H]1c1nc2cccc(Cl)c2c(=O)n1Cc1ccc(C(=O)NO)s1`, for which the results for the half-inhibitory concentration (IC50) (against Histone deacetylase 1; in data set [2]) were 111 nM and 67 nM, respectively.
For `CN(Cc1ccc(C(=O)NO)cc1)C(=O)O[C@@H]1C[C@@H](c2nc3cccc(Cl)c3c(=O)n2C)N(c2nc(N)nc(N)c2C#N)C1`, the half-maximal inhibitory concentration (IC50) in data set [1] turned out to be 42 nM; against Histone deacetylase 1, 260 nM; in data set [2], 11 nM.
Taken in the same sequence, the figures for `N#Cc1c(N)nc(N)nc1N1CC2(CC2)C[C@H]1c1nc2cccc(F)c2c(=O)n1Cc1ccc(C(=O)NO)s1` were 20 nM, 82 nM and 32 nM.
Regarding `N#Cc1c(N)nc(N)nc1N1CC2(CC2)C[C@H]1c1nc2cccc(Cl)c2c(=O)n1Cc1ccc(C(=O)NO)cc1`, the IC50 in data set [1] came out at 6.1 nM; in data set [2], 331 nM.
For the compound `N#Cc1c(N)nc(N)nc1N1CC2(CC2)C[C@H]1c1nc2cccc(F)c2c(=O)n1Cc1ccc(C(=O)NO)cc1`, the half-inhibitory concentration (IC50) is 33 nM in data set [1], 287 nM on Histone deacetylase 1 and 27 nM in data set [2].
Take `Cn1c([C@@H]2C[C@@H](OC(=O)NCCc3ccc(C(=O)NO)cc3)CN2c2nc(N)nc(N)c2C#N)nc2cccc(Cl)c2c1=O`: the values for the half-maximal inhibitory concentration (IC50) (in data set [1]; on Histone deacetylase 1; in data set [2]) were 22 nM, 288 nM and 36 nM, respectively.
Taken in the same sequence, the figures for `CC[C@H](Nc1ncnc2[nH]cnc12)c1nc2cccc(F)c2c(=O)n1CCCCCC(=O)NO` were 36 nM, 85 nM and 121 nM.
For the compound `N#Cc1c(N)nc(N)nc1N1CC2(CC2)C[C@H]1c1nc(NCCc2ccc(C(=O)NO)cc2)c2c(Cl)cccc2n1`, the concentration for half-maximal inhibition (IC50) in data set [2] turned out to be 219 nM.
`N#Cc1c(N)nc(N)nc1N1C[C@@H](OC(=O)NCc2ccc(C(=O)NO)cc2)C[C@H]1c1nc2cccc(Cl)c2c(=O)n1-c1ccccc1`: the IC50 in data set [1] is 6.8 nM; in data set [2], 168 nM.
As to `Cn1c([C@@H]2C[C@@H](OCc3ccc(C(=O)NO)s3)CN2c2nc(N)nc(N)c2C#N)nc2cccc(Cl)c2c1=O`, the IC50 in data set [1] came to 42 nM; against Histone deacetylase 1, 88 nM; in data set [2] it was 13 nM.

As a reminder, the IC50 is the point on the concentration scale where inhibition reaches its midpoint. A higher IC50 goes with a need for much substance.
